# Measured values as given in patent publication US20260125347A1, “l,2-SUBSTITUTED 3-OXOPYRAZOLIDINE DERIVATIVES AS PROSTAGLANDIN E2 RECEPTOR 4 (EP4) AGONISTS FOR THE TREATMENT OF GASTROINTESTINAL AND PULMONARY DISEASES” (NXERA PHARMA UK LIMITED, priority 2022, published 2026).
# How the values were obtained:
# human EP4 = target: T1, human EP4 (Homo sapiens, UniProt P35408); assay: cAMP Gs functional assay (HTRF cAMP dynamic-2) in HEK293 cells transfected with EP4 Bacmam virus; format: cell-based; conditions: for EC50: HEK293 cells expressing human EP4, 30 mins at 37° C., mid-point of the curve, read-out: cAMP human EP4 pEC50 (converted); for cAMP human EP4 Emax: HEK293 cells expressing human EP4, unit assumed; for cAMP human EP4 Emax / Emax: positive control 10 μM PGE2; for Emax: HEK293, HEK293 cells expressing human EP4
# T1 construct: expressed in transfected cells; host or cells: HEK293 cells transduced with EP4 BacMam virus (virus generated in SF9 cells)
# T1 sequence (P35408 whole entry): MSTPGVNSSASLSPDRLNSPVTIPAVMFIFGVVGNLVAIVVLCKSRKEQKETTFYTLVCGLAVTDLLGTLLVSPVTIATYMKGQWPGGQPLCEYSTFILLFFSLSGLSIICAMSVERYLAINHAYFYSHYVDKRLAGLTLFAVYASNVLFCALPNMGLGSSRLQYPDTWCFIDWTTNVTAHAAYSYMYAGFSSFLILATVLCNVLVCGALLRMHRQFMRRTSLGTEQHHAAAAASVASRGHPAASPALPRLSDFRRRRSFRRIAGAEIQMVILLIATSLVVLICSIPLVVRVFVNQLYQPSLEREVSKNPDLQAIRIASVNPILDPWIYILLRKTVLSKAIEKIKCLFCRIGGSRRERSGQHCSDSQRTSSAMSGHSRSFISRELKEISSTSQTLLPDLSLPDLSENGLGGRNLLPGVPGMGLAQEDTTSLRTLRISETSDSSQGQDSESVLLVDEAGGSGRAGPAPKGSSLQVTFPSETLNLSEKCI
# Method: Cloning, Baculovirus generation, large scale infection of HEK293 cells and membrane preparation: Human prostaglandin E2 receptor 4 (EP4) was cloned into pBacMam expression vector (GeneScript, UK). Transposition of EP4 DNA was performed using Invitrogen's Bac-to-Bac Baculovirus Expression Systems. P0 baculovirus was generated by transfecting SF9 Cells with bacmid DNA using Cellfectin II transfection reagent (ThermoFisher Scientific, UK). Following P0 generation P1 virus was then generated ready for large scale infection and membrane preparation. HEK293 cells were grown in DMEM (ThermoFisher Scientific, UK), supplemented with 10% heat inactivated fetal bovine serum (FBS). Cells were infected at a seeding density of 3.5 million cells/mL in 500 cm^3 flasks at 5% v/v EP4 Bacman. Expression was carried out over a 36 hr period at 37° C. with 5% CO2. The cells were removed using PBS and a cell scrapper. The cell culture was centrifuged at 2500 RPM for 10 mins at 4° C. The supernatant was then poured off and the pellet stored at −80° C. The pellet was defrosted and re-suspended in 15 mL of homogenising buffer (20 mM HEPES, 10 mM EDTA, pH 7.4). Then homogenised in mechanical homogeniser (VMR) for 10 seconds. The membrane was centrifuged in centrifuge tubes at 40,000 g for 15 mins at 4° C. The supernatant was poured away and re-suspended in 15 mL of homogenising buffer. Homogenised for 20 seconds. The membrane was centrifuged at 40,000 g for 45 mins at 4° C. The membrane was re-suspended in 3 mL of storage buffer (20 mM HEPES, 0.1 mM EDTA, pH 7.4) mixing well. The resulting membranes were then stored at −80° C. cAMP Gs Functional Assay: CAMP production following EP4 receptor activation was determined using the Homogeneous Time-Resolved Fluorescence (HTRF) CAMP dynamic-2 assay (Cisbio, France). HEK293 cells were transfected using a 0.5% EP4 Bacmam virus for 36 hours, before dissociating the cells, and freezing at −150° C. On the day of testing, increasing concentration of test compounds, alongside positive controls (10 μM PGE2 (Tocris, Abingdon, UK)) and negative control (DMSO (Sigma-Aldrich, UK) were added to a ProxiPlate-384 Plus, White 384-shallow well Mircoplate, (PerkinElmer, USA) using the ECHO dispense. Cells were defrosted in a water bath and resuspended in DMEM supplemented with 10% FBS before centrifuging at 1200 RPM for 5 mins to form a pellet. The pellet was resuspended in assay buffer (DMEM+0.5 mM IBMX (Tocris, Abingdon, UK)) to 0.5×10^6 cells/mL. Cell suspension, for a final assay concentration of 5000 cell/well was added using the multidrop to the pre-dispensed assay plate. The plate was then incubated at 37° C. for 30 mins, with 5% CO2. The CAMP production was determined as manufacturer's instructions, before plates were read on a PheraStar fluorescence plate reader (BMG LabTech, Germany).
# [1] = Unidirectional Caco-2 cell permeability assay; format: in vitro ADME; conditions: human, Caco-2, 10 μM, apical pH 6.5, basolateral pH 7.4, 1 hour, 37° C., n=2
# Method: (§1) Caco-2 cells (ECACC) were seeded onto 24-well Transwell plates at 2×10^5 cells per well and used in confluent monolayers after a 21 day culture at 37° C. under 5% CO2. Test compounds were incubated at 10 μM, 0.2% DMSO final, n=2 in assay buffer (Hanks balanced salt solution supplemented with 25 mM HEPES, adjusted to pH 6.5). Hanks balanced salt solution supplemented with 25 mM HEPES, adjusted to pH 7.4 (0.2% DMSO final) was used for the basolateral chamber (as receiver).
# (§2) Incubations were performed at 37° C., with samples removed from both donor and acceptor chambers at T=0 and 1 hour and compound analysed by mass spectrometry (LC-MS/MS) including an analytical internal standard (0.5 μM carbamazepine).
# (§3) Apparent permeability (Papp) values are shown in Table 3 and were determined from the relationship:
# (§4) Where V is the volume of each Transwell compartment (apical 125 μL, basolateral 600 μL), and concentrations are the relative MS responses for compound (normalized to internal standard) in the donor chamber before incubation and acceptor chamber at the end of the incubation Area=area of cells exposed for drug transfer (0.33 cm^2).
# (§5) Lucifer Yellow (LY) was added to the apical buffer in all wells to assess viability of the cell layer. As LY cannot freely permeate lipophilic barriers, a high degree of LY transport indicates poor integrity of the cell layer and wells with a LY Papp>10×10^6 cm/s were rejected.
# (§6) Compound recovery from the wells was determined from MS responses (normalized to internal standard) in donor and acceptor chambers at the end of incubation compared to response in the donor chamber pre-incubation.
# Caco-2 cells = assay: Unidirectional Caco-2 cell permeability assay; format: in vitro ADME; conditions: 10 μM, apical pH 6.5, basolateral pH 7.4, 1 hour, 37° C., n=2
# Method: as §1, §2, §3, §4, §5, §6
Compound,EC50 (human EP4) [nM],cAMP human EP4 Emax (human EP4) [%],"Papp A→B at 1 h, 10 μM [1] [×10⁻⁶ cm/s]",Emax (human EP4) [%],Caco-2 Mean Papp A-B (Caco-2 cells)
"Cc1cc(C(N)=O)ccc1-c1cccc(C(O)CCN2CCC(=O)N2CCc2ccc(-c3nnn[nH]3)cc2)c1 (single isomer, unassigned) [9; isomer 2]",0.251,96,< 0.1,–,–
"Cc1cc(OS(N)(=O)=O)ccc1-c1cccc(C(O)CCN2CCC(=O)N2CCc2ccc(C(=O)O)cc2)c1 (single isomer, unassigned) [4; isomer 2]",2.51,97,–,–,0.67 10^−6 cm/s
"Cc1cc(C(N)=O)ccc1-c1cccc(C(O)CCN2CCC(=O)N2CCc2cc(F)c(C(=O)O)c(F)c2)c1 (single isomer, unassigned) [5; isomer 2]",15.8,96,< 0.1,–,–
"Cc1cc(C(N)=O)ccc1-c1cccc(C(O)CCN2CCC(=O)N2CCc2ccc(C(=O)O)c(O)c2)c1 (single isomer, unassigned) [7; isomer 1]",3.98,–,< 0.1,99,–
"Cc1cc(S(N)(=O)=O)ccc1-c1cccc(C(O)CCN2CCC(=O)N2CCc2cc(F)c(C(=O)O)c(F)c2)c1 (single isomer, unassigned) [8; isomer 2]",31.6,99,< 0.3,–,–
Cc1cc(C(N)=O)ccc1-c1cccc(C(O)CCN2CCC(=O)N2CCc2ccc(-c3nnn[nH]3)cc2)c1 (racemic) [9; racemate],0.158,–,< 0.1,97,–
"Cc1cc(S(N)(=O)=O)ccc1-c1cccc(C(O)CCN2CCC(=O)N2CCc2cc(F)c(C(=O)O)c(F)c2)c1 (single isomer, unassigned) [8; isomer 1]",2510,–,–,96,–
"Cc1cc(C(N)=O)ccc1-c1cccc(C(O)CCN2CCC(=O)N2CCc2ccc(C(=O)O)c(O)c2)c1 (single isomer, unassigned) [7; isomer 2]",100,97,–,–,<0.1 10^−6 cm/s
"Cc1cc(S(N)(=O)=O)ccc1-c1cccc(C(O)CCN2CCC(=O)N2CCc2ccc(C(=O)O)c(O)c2)c1 (single isomer, unassigned) [6; isomer 2]",50.1,96,–,–,–
Cc1cc(C(N)=O)ccc1-c1cccc(C(O)CCN2CCC(=O)N2CCc2cc(F)c(C(=O)O)c(F)c2)c1 (racemic) [5; racemate],50.1,–,–,97,–
"Cc1cc(C(N)=O)ccc1-c1cccc(C(O)CCN2CCC(=O)N2CCc2cc(F)c(C(=O)O)c(F)c2)c1 (single isomer, unassigned) [5; isomer 1]",794,–,–,88,–
"Cc1cc(S(N)(=O)=O)ccc1-c1cccc(C(O)CCN2CCC(=O)N2CCc2ccc(C(=O)O)c(O)c2)c1 (single isomer, unassigned) [6; isomer 1]",3.98,–,< 0.1,97,–
"Cc1cc(C(N)=O)ccc1-c1cccc(C(O)CCN2CCC(=O)N2CCc2ccc(-c3nnn[nH]3)cc2)c1 (single isomer, unassigned) [9; isomer 1]",39.8,–,–,93,–

# The remaining lines, values ahead:
EC50 (human EP4) [nM],cAMP human EP4 Emax (human EP4) [%],"Papp A→B at 1 h, 10 μM [1] [×10⁻⁶ cm/s]",Emax (human EP4) [%],Caco-2 Mean Papp A-B (Caco-2 cells),Compound
2.51,–,0.3,97,–,Cc1cc(S(N)(=O)=O)ccc1-c1cccc(C(O)CCN2CCC(=O)N2CCc2ccc(C(=O)O)cc2)c1 (racemic) [3; racemate]
158,–,< 0.29,95,–,"Cc1cc(C(N)=O)ccc1-c1cccc(C(O)CCN2CCC(=O)N2CCc2ccc(C(=O)O)cc2)c1 (single isomer, unassigned) [2; isomer 1]"
39.8,–,–,93,0.23 10^−6 cm/s,"Cc1cc(S(N)(=O)=O)ccc1-c1cccc(C(O)CCN2CCC(=O)N2CCc2ccc(C(=O)O)cc2)c1 (single isomer, unassigned) [3; isomer 1]"
6.31,–,–,97,–,Cc1cc(OS(N)(=O)=O)ccc1-c1cccc(C(O)CCN2CCC(=O)N2CCc2ccc(C(=O)O)cc2)c1 (racemic) [4; racemate]
251,–,–,93,0.3 10^−6 cm/s,"Cc1cc(OS(N)(=O)=O)ccc1-c1cccc(C(O)CCN2CCC(=O)N2CCc2ccc(C(=O)O)cc2)c1 (single isomer, unassigned) [4; isomer 1]"
3.98,–,0.68,97,–,Cc1cc(O)ccc1-c1cccc(C(O)CCN2CCC(=O)N2CCc2ccc(C(=O)O)cc2)c1 (racemic) [1; racemate]
3.16,–,–,99,–,Cc1cc(C(N)=O)ccc1-c1cccc(C(O)CCN2CCC(=O)N2CCc2ccc(C(=O)O)cc2)c1 (racemic) [2; racemate]
1.26,98,–,–,0.72 10^−6 cm/s,"Cc1cc(S(N)(=O)=O)ccc1-c1cccc(C(O)CCN2CCC(=O)N2CCc2ccc(C(=O)O)cc2)c1 (single isomer, unassigned) [3; isomer 2]"
0.501,98,–,–,<0.47 10^−6 cm/s,"Cc1cc(C(N)=O)ccc1-c1cccc(C(O)CCN2CCC(=O)N2CCc2ccc(C(=O)O)cc2)c1 (single isomer, unassigned) [2; isomer 2]"
2,99,–,–,–,"Cc1cc(O)ccc1-c1cccc(C(O)CCN2CCC(=O)N2CCc2ccc(C(=O)O)cc2)c1 (single isomer, unassigned) [1; isomer 2]"
50.1,–,0.86,97,–,"Cc1cc(O)ccc1-c1cccc(C(O)CCN2CCC(=O)N2CCc2ccc(C(=O)O)cc2)c1 (single isomer, unassigned) [1; isomer 1]"
